How the values were obtained:
Type in all cases: cell-based
Details in all cases: Experiment 2; 72 hours at 30° C.
[1] = test system: Clostridium perfringens ATCC 13124
[2] = test system: Streptococcus suis DSM 28762; test: MIC determination (Bioscreen growth)
[3] = test system: Streptococcus suis DSM 9682; test: MIC determination (Bioscreen growth)

Measured: MIC value

CC(O)CO (stereo not drawn) [MPG, 1,2-propanediol]
>405 ppm: all assays above
